In paper PMC5691136, “The role of CXCR3/LRP1 cross-talk in the invasion of primary brain tumors” (Nature Communications, 2017) one finds Kd data, which are given here for 1 molecule.

The test addresses T1, CXCR3-A (Homo sapiens, UniProt P49682).
T1 construct: full-length human CXCR3-A (isoform A) in membrane fragments of transfected U87 and HEK-293 cells
T1 sequence (P49682 1-368): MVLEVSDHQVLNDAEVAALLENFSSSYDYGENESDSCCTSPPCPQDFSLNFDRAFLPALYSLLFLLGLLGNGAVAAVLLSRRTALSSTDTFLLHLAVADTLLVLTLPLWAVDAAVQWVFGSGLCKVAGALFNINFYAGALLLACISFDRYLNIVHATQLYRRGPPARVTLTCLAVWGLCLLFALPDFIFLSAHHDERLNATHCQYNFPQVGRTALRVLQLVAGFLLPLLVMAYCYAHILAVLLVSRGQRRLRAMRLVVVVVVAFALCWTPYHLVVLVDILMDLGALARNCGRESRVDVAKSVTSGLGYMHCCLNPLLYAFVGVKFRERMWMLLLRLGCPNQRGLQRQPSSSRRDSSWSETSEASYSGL
As to the kind of experiment: plasmon waveguide resonance on captured cell membrane fragments; no spectral change with U87-CTRL fragments. Type of test: binding.

Structures are written as SMILES.

In general, Kd refers to a measure of binding affinity in units of concentration. The low end stands for tighter binding, the high end for weaker binding. `NC(N)=NCCC[C@H](NC(=O)[C@@H]1Cc2ccccc2CN1C(=O)CCC(=O)c1ccccc1)C(=O)NCC1CCCCC1` [PS372424] yielded a Kd of 0.036 ± 0.009 µM.
